Measurements taken from patent publication US7012072B2, “Pharmaceutical oxaliplatinum preparation for parenteral administration and method for obtaining same” (Debiopharm S.A., priority 2000, dated 2006).

What was measured:
Format in all cases: physicochemical
[1] = Wet heat sterilization, three successive cycles at 80° C., observation after 72 hours at refrigerator temperature; conditions: 10 mg/ml, 3 cycles 80° C. ± 2, 30 min, 24 h standing at approx. 20° C.
Protocol: They were then subjected to operations of wet heat sterilization by carrying out three successive cycles of heating at a temperature of 80° C., followed by a return to an ambient temperature of approximately 20° C.
The solutions thus treated were kept, before observation, at refrigerator temperature for 72 hours.

[2] = Wet heat treatment of oxaliplatin solutions in an autoclave, observation after return to ambient temperature; conditions: for Observation after storage (black precipitate): degassed with argon; for Observatios: appearance of solution: 24 hours after treatment
Text: The mixtures as obtained by applying the method described in example 1, and according to the relative amounts indicated in table 1, […] well known to a specialist. […]

[3] = Preparation of concentrated oxaliplatin solutions in solvent with hydroxylated derivative; conditions: solvent with sufficient amount of 1,2-propanediol, glycerol, maltitol, sucrose or inositol
Protocol: One of the co-solvents chosen from 1,2-propanediol, glycerol and maltitol, respectively, is introduced into the receptacle at the same time as or prior to the addition of water to make the volume up to 25 ml, according to the corresponding volume/volume or weight/volume ratios as indicated in the various tables.
After returning to ambient temperature, namely approximately 20° C., a clarifying filtration operation is optionally carried out in order to ensure clarity.

[4] = 10 mg/ml supersaturated, water for injectable preparation, 80° C. ± 2, 30 min

With `O=C1[O][Pt]2([NH][C@@H]3CCCC[C@H]3[NH]2)[O]C1=O` [Oxaliplatin] the “Observations: appearance of solution” value ([1]; 1,2-propanediol/water for injectable preparation 50/50 (V/V)) was “clear appearance”, the “Observations: appearance of solution” value ([1]; 85% glycerol/water for injectable preparation 50/50 (V/V)) was “clear appearance” and the “Observations: appearance of solution” value ([1]; maltitol/water for injectable preparation 50% (m/V)) was “clear appearance”. The Observation after storage ([2]; 10 mg/ml supersaturated, water for injectable preparation, no co-solvent, 120° C. ± 2, 90 min) was “presence of black precipitate”, the “Observation after storage: appearance of solution” value [2, 4] was “solution has a clear appearance” and the “Observation after storage: precipitate” value [2, 4] was “no presence of precipitate”. For the same molecule, the “Observation after storage (black precipitate)” value ([2]; 10 mg/ml, 1,2-propanediol/water 20/20 (V/V), 110° C. ± 2, 120 min) was “presence of”, the “Observation after storage (black precipitate)” value ([2]; 10 mg/ml, 1,2-propanediol/water 20/20 (V/V), 120° C. ± 2, 150 min) was “presence of” and the “Observatios: appearance of solution” value ([2]; 10 mg/ml, 1,2-propanediol/water 50/50 (V/V), 70° C. ± 2, 30 min) was “clear”. For the same molecule, the “Observation after storage (black precipitate)” value ([2]; 10 mg/ml, 85% glycerol/water 20/20 (V/V), 110° C. ± 2, 120 min) was “presence of”, the “Observation after storage (black precipitate)” value ([2]; 10 mg/ml, 85% glycerol/water 20/20 (V/V), 120° C. ± 2, 150 min) was “presence of” and the “Observatios: appearance of solution” value ([2]; 10 mg/ml, 85% glycerol/water 50/50 (V/V), 70° C. ± 2, 30 min) was “clear”. The “Observation after storage (black precipitate)” value ([2]; 10 mg/ml, maltitol/water 50% (m/V), 110° C. ± 2, 120 min) was “presence of”, the “Observation after storage (black precipitate)” value ([2]; 10 mg/ml, maltitol/water 50% (m/V), 120° C. ± 2, 150 min) was “presence of” and the “Observatios: appearance of solution” value ([2]; 10 mg/ml, maltitol/water 50% (m/V), 70° C. ± 2, 30 min) was “clear”. For the same molecule, the “Observatios: appearance of solution” value ([2]; 12 mg/ml, maltitol/water 30% (m/V), 80° C. ± 2, 30 min) was “clear” and the “concentration of oxaliplatin obtained in the preparation” value [3] was “over 7 mg/ml”.
